According to ChEMBL document CHEMBL4706632, “Development of Potential Antitumor Agents from the Scaffolds of Plant-Derived Terpenoid Lactones” (J Med Chem, 2020):
One block for each molecule: values may come before it.

Assays:
[1] = test system: HCT-116; assay: Antiproliferative activity against human HCT-116 cells incubated for 72 hrs by WST-1 assay; type: functional, cell-based; settings: HCT-116, 72 h
[2] = test system: MDA-MB-231; assay: Cytotoxicity against human MDA-MB-231 cells incubated for 72 hrs by MTT assay; type: functional, cell-based; settings: MDA-MB-231, 72 h
[3] = test system: MCF7; assay: Cytotoxicity against human MCF-7 cells incubated for 72 hrs by MTT assay; type: functional, cell-based; settings: MCF7, 72 h
[4] = test system: MDA-MB-435; assay: Antiproliferative activity against human MDA-MB-435 cells incubated for 48 hrs by [3H]-thymidine incorporation assay; type: functional, cell-based
[5] = test system: MCF7; assay: Antiproliferative activity against human MCF7 cells incubated for 48 hrs by [3H]-thymidine incorporation assay; type: functional, cell-based
[6] = Inhibition of PAFR in New Zealand rabbit platelets assessed as reduction in PAF-induced platelet aggregation measured within 5 mins by aggregometry analysis; type: tissue-based; settings: Oryctolagus cuniculus
[7] = test system: P388; assay: Antiproliferative activity against mouse P388 cells; type: functional, cell-based
[8] = test system: HepG2; assay: Cytotoxicity against human HepG2 cells incubated for 48 hrs by MTT assay; type: functional, cell-based; settings: HepG2, 48 h
[9] = test system: AGS; assay: Cytotoxicity against human AGS cells incubated for 48 hrs by MTT assay; type: functional, cell-based
[10] = test system: MDA-MB-231; assay: Cytotoxicity against human MDA-MB-231 cells incubated for 48 hrs by MTT assay; type: functional, cell-based; settings: MDA-MB-231, 48 h
[11] = test system: PANC-1; assay: Cytotoxicity against human Panc-1 cells incubated for 48 hrs by MTT assay; type: functional, cell-based; settings: PANC-1, 48 h
[12] = test system: HeLa; assay: Cytotoxicity against human HeLa cells incubated for 48 hrs by MTT assay; type: functional, cell-based
[13] = test system: HCT-116; assay: Cytotoxicity against human HCT116 cells incubated for 72 hrs by ATPlite assay; type: functional, cell-based; settings: HCT-116, 72 h
[14] = test system: WM 266-4; assay: Cytotoxicity against human WM 266-4 cells incubated for 72 hrs by ATPlite assay; type: functional, cell-based; settings: WM 266-4, 72 h

IC50 [1]: 250 nM
Structure (SMILES): COC(=O)[C@@]12OC[C@]34[C@H]([C@@H](O)[C@@H]1O)[C@@]1(C)CC(=O)C(O)=C(C)[C@@H]1C[C@H]3OC(=O)[C@H](OC(=O)/C=C(\C)C(C)(C)O)[C@@H]24

Structure (SMILES): COC(=O)[C@@]12OC[C@]34[C@H]([C@@H](O)[C@@H]1O)[C@@]1(C)CC(=O)C(O)=C(C)[C@@H]1C[C@H]3OC(=O)[C@H](OC(=O)/C=C(\C)C(C)(C)OC(C)=O)[C@@H]24
IC50 [2]: 88 nM | IC50 [3]: 63 nM | IC50 [1]: 50 nM

IC50 [4]: 780 nM | IC50 [5]: 97 nM
Structure (SMILES): CC(=O)O[C@H]1CC(=O)OC(C)(C)[C@@H]2CC(=O)[C@]3(C)[C@H](CC[C@@]4(C)[C@H](c5ccoc5)OC(=O)[C@H]5O[C@]543)[C@@]12C

IC50 [6]: 38 nM
Structure (SMILES): Cc1ccccc1Cn1cc(CO[C@H]2C(=O)O[C@H]3O[C@]45C(=O)O[C@@H]6[C@H](O)[C@@H](C(C)(C)C)[C@@]32[C@@]64[C@@H](O)[C@@H]2OC(=O)[C@@H](C)[C@@]25O)nn1

IC50 [7]: 58000 nM
Structure (SMILES): CC(=O)O[C@@H]1C[C@H](O)[C@@]23COC(O)[C@]1(C)[C@@H]2C[C@@H](O)[C@@]1(C)[C@@H]2C(=O)C[C@@H](c4ccoc4)[C@]2(C)CC(=O)[C@@H]13 (stereo not given in full)

Structure (SMILES): C[C@@H](O)[C@H]1OC(=O)C=C2[C@]3(C)[C@H]4[C@H](OC(=O)[C@@]4(C)[C@@H](O)[C@H]4O[C@H]43)[C@H]3O[C@@]231
IC50 [8]: 11000 nM | IC50 [9]: 1300 nM | IC50 [10]: 3000 nM | IC50 [11]: 16000 nM | IC50 [12]: 1800 nM

Structure (SMILES): C[C@@]12C3=CC(=O)O[C@H]([C@H](O)CO)[C@]34O[C@@H]4[C@H]3OC(=O)[C@](C)([C@H]31)[C@@H](O)[C@H]1O[C@H]12
IC50 [8]: > 40000 nM | IC50 [9]: > 40000 nM | IC50 [10]: > 40000 nM | IC50 [11]: > 40000 nM | IC50 [12]: > 40000 nM

IC50 [4]: 1700 nM | IC50 [5]: 5500 nM
Structure (SMILES): CC1(C)O[C@H]2CC(=O)OC[C@@]23[C@H]1CC(=O)[C@@]1(C)C2=CC(=O)O[C@@H](c4ccoc4)[C@]2(C)CC[C@@H]13

IC50 [6]: 71 nM
Structure (SMILES): Cc1ccccc1Cn1cc(CO[C@H]2C(=O)O[C@H]3O[C@]45C(=O)O[C@@H]6C[C@@H](C(C)(C)C)[C@@]32[C@@]64C[C@@H]2OC(=O)[C@@H](C)[C@@]25O)nn1

IC50 [4]: 150 nM | IC50 [5]: 10 nM
Structure (SMILES): CC1(C)OC(=O)C[C@H](O)[C@]2(C)[C@H]3CC[C@@]4(C)[C@H](c5ccoc5)OC(=O)[C@H]5O[C@]54[C@]3(C)C(=O)C[C@@H]12

Structure (SMILES): CC(C)[C@H]1OC(=O)C=C2C1=C[C@H]1OC(=O)[C@@]3(C)C[C@@H](O)C[C@@]2(C)[C@@H]13
IC50 [8]: 3700 nM | IC50 [9]: 370 nM | IC50 [10]: 1100 nM | IC50 [11]: 3100 nM | IC50 [12]: 900 nM

Structure (SMILES): CC(=O)O[C@@]1(C)COC2(C1)OC(=O)[C@H]([C@@H]1CC[C@]34C[C@]13C=C[C@@H]1[C@@]3(C)CC=C5C[C@@H](Cc6ccccc6)OC[C@]5(C)[C@@H]3[C@@H](O)C(=O)[C@]14C)[C@H]2O (stereo not given in full)
IC50 [13]: 9.9 nM | IC50 [14]: 78 nM

IC50 [6]: 5.7 nM
Structure (SMILES): Cc1ccccc1Cn1cc(CO[C@H]2C(=O)O[C@H]3O[C@]45C(=O)O[C@@H]6C[C@@H](C(C)(C)C)[C@@]32[C@@]64[C@@H](O)[C@@H]2OC(=O)[C@@H](C)[C@@]25O)nn1

Structure (SMILES): C/C(C=O)=C\[C@H]1C[C@@H]([C@@H]2CC[C@]34C[C@]23C=C[C@@H]2[C@@]3(C)CC=C5C[C@@H](c6ccccc6)OC[C@]5(C)[C@@H]3C[C@@H](O)[C@]24C)C(=O)O1
IC50 [13]: 92 nM | IC50 [14]: 1500 nM

Structure (SMILES): CC(O)(CO)[C@H]1C[C@H](O)[C@@H]([C@@H]2CC=C3[C@]4(C)[C@H](O)C[C@@H]5[C@](C)(CC=C6C[C@@H](Cc7ccccc7)OC[C@@]65C)[C@H]4CC[C@]32C)[C@@H](O)O1 (stereo not given in full)
IC50 [13]: 4200 nM | IC50 [14]: 31000 nM

IC50 [7]: < 1.9 nM
Structure (SMILES): CC(=O)O[C@@H]1C[C@H](O)[C@@]23COC(O)[C@]1(C)[C@@H]2C[C@@H](O)[C@]1(C)[C@@H]3C(=O)C[C@@]2(C)[C@H](c3ccoc3)C[C@H]3O[C@@]312 (stereo not given in full)

IC50 [7]: 16 nM
Structure (SMILES): CC(=O)OC1OC[C@@]23[C@H]4C(=O)C(OC(C)=O)[C@@]5(C)[C@H](c6ccoc6)C[C@H]6O[C@]65[C@]4(C)[C@H](O)C[C@H]2[C@]1(C)[C@H](OC(C)=O)C[C@@H]3O (stereo not given in full)

Structure (SMILES): C[C@]1(O)COC2(C[C@@H]([C@@H]3CC[C@]45C[C@]34C=C[C@@H]3[C@@]4(C)CC=C6C[C@@H](Cc7ccccc7)OC[C@]6(C)[C@@H]4C[C@@H](O)[C@]35C)C(=O)O2)C1 (stereo not given in full)
IC50 [13]: 450 nM | IC50 [14]: 1300 nM

Structure (SMILES): CC(=O)O[C@@]1(C)COC2(C1)OC(=O)[C@H]([C@@H]1CC[C@]34C[C@]13C=C[C@@H]1[C@@]3(C)CC=C5C[C@@H](Cc6ccccc6)OC[C@]5(C)[C@@H]3CC(=O)[C@]14C)[C@H]2O (stereo not given in full)
IC50 [13]: 58 nM | IC50 [14]: 230 nM

IC50 [7]: 160 nM
Structure (SMILES): C=C[C@H]1OC(=O)C=C2C1=C[C@H]1OC(=O)[C@@]3(C)CCC[C@@]2(C)[C@@H]13

Structure (SMILES): C=C[C@H]1OC(=O)C=C2[C@]3(C)[C@H]4[C@H](OC(=O)[C@@]4(C)[C@@H](O)[C@H]4O[C@H]43)[C@H]3O[C@@]231
IC50 [8]: 3500 nM | IC50 [9]: 550 nM | IC50 [10]: 660 nM | IC50 [11]: 8500 nM | IC50 [12]: 620 nM

Structure (SMILES): C/C(=C\[C@@H]1OC(=O)[C@H]([C@@H]2CC[C@]34C[C@]23C=C[C@@H]2[C@@]3(C)CC=C5C[C@@H](c6ccccc6)OC[C@]5(C)[C@@H]3C[C@@H](O)[C@]24C)[C@H]1O)CO
IC50 [13]: 81 nM | IC50 [14]: 340 nM

IC50 [1]: 99 nM
Structure (SMILES): COC(=O)[C@@]12OC[C@]34[C@H]([C@@H](O)[C@@H]1O)[C@@]1(C)CC(=O)C(O)=C(C)[C@@H]1C[C@H]3OC(=O)[C@H](OC(C)=O)[C@@H]24 [BRUCEINE B]

Structure (SMILES): COC(=O)[C@@]12OC[C@]34[C@H]([C@@H](O)[C@@H]1O)[C@@]1(C)C=C(O[C@@H]5O[C@H](CO)[C@@H](O)[C@H](O)[C@H]5O)C(=O)[C@@H](C)[C@@H]1C[C@H]3OC(=O)[C@H](OC(=O)C=C(C)C)[C@@H]24 [BRUCEOSIDE A]
IC50 [2]: > 50000 nM | IC50 [3]: > 50000 nM

IC50 [7]: 4 nM
Structure (SMILES): C=C1[C@@H](O)C[C@H]2C(C)(C)C[C@H](Cl)C[C@]2(C)[C@H]1C[C@H](O)[C@H]1CC(=O)NC1=O [CHLOROLISSOCLIMIDE]

Structure (SMILES): C=C1[C@@H](O)C[C@H]2C(C)(C)[C@@H](Cl)[C@H](Cl)C[C@]2(C)[C@H]1C[C@H](O)[C@H]1CC(=O)NC1=O [DICHLOROLISSOCLIMIDE]
IC50 [7]: 2 nM

Structure (SMILES): CC(C)c1oc(=O)cc2c1[C@@H](O)[C@H]1OC(=O)[C@@]3(C)[C@@H](O)[C@H]4O[C@H]4[C@@]2(C)[C@@H]13 [NAGILACTONE C]
IC50 [8]: 14000 nM | IC50 [9]: 2300 nM | IC50 [10]: 5000 nM | IC50 [11]: > 40000 nM | IC50 [12]: 3300 nM

Structure (SMILES): CC(C)[C@H]1OC(=O)C=C2C1=C[C@H]1OC(=O)[C@@]3(C)CCC[C@@]2(C)[C@@H]13 [NAGILACTONE F]
IC50 [8]: 1300 nM | IC50 [9]: 500 nM | IC50 [7]: 280 nM | IC50 [10]: 1000 nM | IC50 [11]: 19000 nM | IC50 [12]: 720 nM
